Reference: US11053205B2, “Phenazine derivatives as antimicrobial agents” (University of Florida Research Foundation, Incorporated, priority 2017, dated 2021)
In brackets after ≈: the same amount, converted by molar mass. Several values for one entry are separate records, joined by “and”; a condition that tells them apart may be missing. Equal values may be shown once. Read-outs that look alike come from different tables or passages of the source. Marks after values point to notes of the source that are not given here.

Legend:
[1] = system: MRSA BAA-1707; experiment: Metal(II)-cation co-treatment MIC assay; format: cell-based; conditions: Staphylococcus aureus
[2] = system: MRSA, MRSE, and VRE; experiment: MIC assays against MRSA, MRSE, and VRE (all strains); conditions: in words
[3] = system: VRE 700221; experiment: MIC, broth microdilution (CLSI); conditions: 16 to 18 hours at 37° C.
[4] = system: HeLa cells
[5] = system: MRSA-2 biofilms; experiment: Calgary Biofilm Device (CBD) assay, MBC/MBEC; conditions: CBD; for MRSA-2 MBEC: biofilm eradication; for MRSA-2 MBC: planktonic killing
[6] = system: MRSA BAA-1707 biofilms; experiment: Calgary Biofilm Device (CBD) assay, MBC/MBEC; conditions: CBD; for MRSA BAA-1707 MBEC: biofilm eradication; for MRSA BAA-1707 MBC: planktonic killing
[7] = system: VRE 700221 biofilms; experiment: Calgary Biofilm Device (CBD) assay, MBC/MBEC; conditions: CBD; for VRE 700221 MBC: planktonic killing
[8] = system: MRSA BAA-44 biofilms; experiment: Calgary Biofilm Device (CBD) assay, MBC/MBEC; conditions: for MRSA BAA-44 MBEC: biofilm eradication; for MRSA BAA-44 MBC: planktonic killing
[9] = system: MRSE 35984; experiment: MIC, broth microdilution (CLSI); conditions: 16 to 18 hours at 37° C.
[10] = system: MRSE 35984 biofilms; experiment: Calgary Biofilm Device (CBD) assay, MBC/MBEC; conditions: CBD; for MRSE 35984 MBEC: biofilm eradication; for MRSE 35984 MBC: planktonic killing
[11] = system: M. tuberculosis H37Ra (ATCC 25177); experiment: MIC assay for Mycobacterium tuberculosis; format: cell-based; conditions: read-out: MtB H37Ra MIC
Procedure: (§1) The culture was then diluted with fresh medium until an OD600 of 0.01 was reached. […] The final DMSO concentration was maintained at 0.5%. […] Three rows were reserved for each compound. […] OD600 absorbance was recorded using SPECTRAMAX M5 (Molecular Devices). Data obtained from three independent experiments were analyzed using Excel.
as §1, with “SpectraMax” for “SPECTRAMAX”

[12] = system: human red blood cells
[13] = system: MRSA-2; experiment: MIC, broth microdilution (CLSI); conditions: 16 to 18 hours at 37° C.
[14] = system: MRSA BAA-1707; experiment: MIC, broth microdilution (CLSI); conditions: 16 to 18 hours at 37° C.; 0.10 = lowest concentration tested

Oc1cccc2nc3ccccc3nc12 [1-OHP, 1-hydroxyphenazine]
MIC [1]: 250 µM
MIC ([1]; read-out: MIC w/ Cu2+): 75 µM
MIC ([1]; read-out: MIC w/ Fe2+): 250 µM
MIC ([1]; read-out: MIC w/ Mg2+): 250 µM
MIC ([1]; read-out: MIC w/ Zn2+): > 500 µM

Oc1cccc2cccnc12 [8-OHQ, 8-hydroxyquinoline]
MIC ([1]; read-out: MIC w/ Mg2+): 6.25 µM

OC[C@H]1O[C@@H](Oc2c(Br)cc(Br)c3nc4ccccc4nc23)[C@H](O)[C@@H](O)[C@@H]1O [79A]
activity in MIC assays [2]: no activity in MIC assays

COCCOCCOCCOC(=O)OCOc1c(Br)cc(Br)c2nc3ccccc3nc12 [80A]
activity in MIC assays [2]: no activity in MIC assays

O=C(OCCOCCOCCOCCO)OCOc1c(Br)cc(Br)c2nc3ccccc3nc12 [82A]
activity in MIC assays [2]: no activity in MIC assays

O=C(OCCSSCCOC(=O)c1ccccc1)OCOc1c(Br)cc(Br)c2nc3ccccc3nc12 [85A]
activity in MIC assays [2]: no antibacterial activity against any pathogen tested

Oc1c(Br)cc(Br)c2nc3ccccc3nc12 [Compound 1A]
VRE 700221 MIC [3]: 6.25 µM
IC50 [4]: > 100 µM
MRSA-2 MBEC [5]: 100 µM
MRSA-2 MBC [5]: 50 µM
MRSA BAA-1707 MBEC [6]: 150 µM
MRSA BAA-1707 MBC [6]: 37.5 µM and 18.8 µM
VRE 700221 MBC [7]: 23.5 µM
MRSA BAA-44 MBEC [8]: 150 µM
MRSA BAA-44 MBC [8]: 375 µM
MRSE 35984 MIC [9]: 1.17^a μM and 1.17 μM
MRSE 35984 MBEC [10]: 100 µM
MRSE 35984 MBC [10]: 50 µM
MIC [11]: 25 µM (≈ 8.85 µg/mL)

Cc1ccc2nc3c(O)c(Br)cc(Br)c3nc2c1 [Compound 52A]
Hemolysis at 200 μM [12]: ≤1%
VRE 700221 MIC [3]: 2.35^a μM
VRE 700221 MBEC ([7]; biofilm eradication): 3.13 µM
VRE 700221 MBC [7]: 12.5 µM
MRSE 35984 MIC [9]: 0.3^a μM
MIC [11]: 6.25 µM (≈ 2.3 µg/mL)

CCc1ccc2nc3c(O)c(Br)cc(Br)c3nc2c1 [Compound 53A]
MRSA-2 MIC [13]: 0.59^a μM
Hemolysis at 200 μM [12]: 3.0%
MRSA BAA-1707 MIC [14]: 0.1^b μM
VRE 700221 MIC [3]: 2.35^a μM
MRSA-2 MBEC [5]: 150 µM
MRSA-2 MBC [5]: 75 µM
MRSA BAA-1707 MBEC [6]: 150 µM
MRSA BAA-1707 MBC [6]: 75 µM
MRSA BAA-44 MBEC [8]: 75^a/75^a μM
MRSA BAA-44 MBC [8]: 75^a/75^a μM
MRSE 35984 MIC [9]: 0.1^b μM
MRSE 35984 MBEC [10]: 75 µM
MRSE 35984 MBC [10]: 50 µM
MIC [11]: 6.25 µM (≈ 2.39 µg/mL)

CC(C)(C)c1ccc2nc3c(O)c(Br)cc(Br)c3nc2c1 [Compound 55A]
MRSA-2 MIC [13]: 0.1^b μM
Hemolysis at 200 μM [12]: ≤1%
MRSA BAA-1707 MIC [14]: 0.1^b μM
VRE 700221 MIC [3]: 0.1^b μM
MRSA-2 MBEC [5]: 3.13/3.13 μM
MRSA-2 MBC [5]: 3.13/3.13 μM
MRSE 35984 MIC [9]: 0.1^b μM
